From US8501713B2, “Drug combinations for the treatment of duchenne muscular dystrophy” (Summit Corporation PLC, priority 2007, dated 2013) come the findings set out here.

Each structure is given as a SMILES string.

For one assay, the system named is Utrophin A promoter linked to a luciferase reporter gene. The experiment in a line: Luciferase reporter assay (murine H2K cells). The settings on record: Mus musculus, H2K mdx, luciferase level relative to control; H2K/mdx/Utro A reporter cells; compound 10 μM final concentration; read-out: Activity. The format is cell-based. The gist of the method: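 Compound at 10 μM final was applied for 48 hrs to plated H2K mdx myoblasts (33° C, 10% CO2, interferon-containing medium) bearing a luciferase gene under the utrophin A promoter. Luminescence from lysed cells served as read-out.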
(Reporter assays use an easily measured gene product as a stand-in for the process of interest.)
As for `CCS(=O)(=O)c1ccc2oc(-c3ccc(Cl)cc3)nc2c1` [Example 180, 2-(4-chlorophenyl)-5-(ethylsulfonyl)benzo[d]oxazole], the activity at 10 µM is more than 401%.
Same read-out and setting: next, `Nc1ccc2sc(-c3ccc(Cl)cc3)nc2c1` [Example 276, 2-(4-chlorophenyl)benzo[d]thiazol-5-amine]: more than 401%; `Cc1ccc(-c2nc3cc(NC(=O)C(F)(F)F)ccc3o2)cc1` [Example 209, 2,2,2-trifluoro-N-(2-p-tolylbenzo[d]oxazol-5-yl)acetamide]: 201 to 300%.
For the compound `Clc1ccc(-c2cc3cc(-c4ccccc4)ccc3[nH]2)cc1` [Example 339, 2-(4-chlorophenyl)-5-phenyl-1H-indole], the activity at 10 µM is less than 200%.
The same measure, in the same setting: the figure for `CC(C)C(=O)Nc1ccc2oc(-c3cccc4ccccc34)nc2c1` [Example 410, N-(2-(naphthalen-1-yl)benzo[d]oxazol-5-yl)isobutyramide] is less than 200%.
Same read-out and setting: next, `O=C(Nc1ccc2oc(-c3cccnc3)nc2c1)c1ccccc1` [Example 39, N-(2-(pyridin-3-yl)benzo[d]oxazol-5-yl)benzamide]: less than 200%; `COc1ccc(C(=O)Nc2ccc3oc(-c4ccccc4)nc3c2)cc1` [Example 25, 4-methoxy-N-(2-phenylbenzo[d]oxazol-5-yl)benzamide]: less than 200%; `CCC(=O)Nc1ccc2oc(-c3cccnc3)nc2c1` [Example 53, N-(2-(pyridin-3-yl)benzo[d]oxazol-5-yl)propionamide]: less than 200%.
Turning to `Cc1ccc(-c2nc3cc(NC(=O)c4cccs4)ccc3o2)cc1` [Example 120, N-(2-p-tolylbenzo[d]oxazol-5-yl)thiophene-2-carboxamide], the activity at 10 µM was in the range of 201 to 300%.
On to `CCC(=O)Nc1ccc2oc(-c3ccc(N(CC)CC)cc3)nc2c1` [Example 75, N-(2-(4-(diethylamino)phenyl)benzo[d]oxazol-5-yl)propionamide], for which the activity at 10 µM lay within 201 to 300%.
For `CC(C)C(=O)Nc1ccc2oc(-c3ccccc3)nc2c1` [Example 12, N-(2-phenylbenzo[d]oxazol-5-yl)isobutyramide], the activity at 10 µM fell in the range of 201 to 300%.
Same read-out and setting: next, `O=[N+]([O-])c1ccc2oc(-c3ccc(OC(F)(F)F)cc3)nc2c1` [Example 348, 5-nitro-2-(4-(trifluoromethoxy)phenyl)benzo[d]oxazole]: 201 to 300%; `CC(C)C(=S)Nc1ccc2oc(-c3ccc(Cl)cc3)nc2c1` [Example 275, N-(2-(4-chlorophenyl)benzo[d]oxazol-5-yl)-2-methylpropanethioamide]: 201 to 300%; `CC(C)C(=O)Nc1ccc2oc(-c3ccc(Cl)cn3)nc2c1` [Example 270, N-(2-(5-chloropyridin-2-yl)benzo[d]oxazol-5-yl)isobutyramide]: more than 401%.
For `O=C(Nc1ccc2oc(-c3ccccc3)nc2c1)c1cccnc1` [Example 6, N-(2-phenylbenzo[d]oxazol-5-yl)nicotinamide], the activity at 10 µM was less than 200%.
Same read-out and setting: the figure for `CCS(=O)(=O)c1ccc2oc(-c3ccc(C)o3)nc2c1` [Example 441, 5-(ethylsulfonyl)-2-(5-methylfuran-2-yl)benzo[d]oxazole] is 301 to 400%; for `CCS(=O)(=O)c1ccc2oc(-c3cc(C)cs3)nc2c1` [Example 443, 5-(ethylsulfonyl)-2-(4-methylthiophen-2-yl)benzo[d]oxazole] it is more than 401%.
On to `CCS(=O)(=O)c1ccc2oc(-c3ccc4c(c3)OC(F)(F)O4)nc2c1` [Example 438, 2-(2,2-difluorobenzo[d][1,3]dioxol-5-yl)-5-(ethylsulfonyl)benzo[d]oxazole], for which the activity at 10 µM is less than 200%.
Same read-out and setting: the figure for `CC(C)C(=O)Nc1ccc2oc(-c3cccc(C(F)(F)F)c3)nc2c1` [Example 203, N-(2-(3-(trifluoromethyl)phenyl)benzo[d]oxazol-5-yl)isobutyramide] is less than 200%; for `COc1ccc(-c2nc3cc(NC(=O)c4cccs4)ccc3o2)cc1` [Example 141, N-(2-(4-methoxyphenyl)benzo[d]oxazol-5-yl)thiophene-2-carboxamide] it is less than 200%; for `CC(C)S(=O)(=O)Nc1ccc2oc(-c3ccccc3)nc2c1` [Example 220, N-(2-phenylbenzo[d]oxazol-5-yl)propane-2-sulfonamide] it is 201 to 300%.
With `O=C(CCc1ccccc1)Nc1ccc2oc(-c3ccc(Cl)cc3)nc2c1` [Example 98, N-(2-(4-chlorophenyl)benzo[d]oxazol-5-yl)-3-phenylpropanamide], the activity at 10 µM is less than 200%.
On to `CC(c1ccccc1)c1nc2cc(N)ccc2o1` (stereo not drawn) [Example 308, 2-(1-phenylethyl)benzo[d]oxazol-5-amine], for which the activity at 10 µM was less than 200%.
On the same count and under the same terms, next, `CCCCC(=O)Nc1ccc2oc(-c3ccc(Cl)cc3)nc2c1` [Example 100, N-(2-(4-chlorophenyl)benzo[d]oxazol-5-yl)pentanamide]: 201 to 300%; `Cc1cc2nc(-c3ccc(N)cc3O)[nH]c2cc1C` [Example 104, 5-amino-2-(5,6-dimethyl-1H-benzo[d]imidazol-2-yl)phenol]: 201 to 300%; `O=C(Nc1ccc2oc(-c3cccnc3)nc2c1)c1ccc(C(F)(F)F)cc1` [Example 46, N-(2-(pyridin-3-yl)benzo[d]oxazol-5-yl)-4-(trifluoromethyl)benzamide]: less than 200%.
As to `O=[N+]([O-])c1ccc2nc(-c3ccccc3O)[nH]c2c1` [Example 106, 2-(6-nitro-1H-benzo[d]imidazol-2-yl)phenol], the activity at 10 µM is less than 200%.
In the case of `CC(=O)Nc1ccc(-c2nc3cc(Br)ccc3o2)cc1` [Example 359, N-(4-(5-bromobenzo[d]oxazol-2-yl)phenyl)acetamide], the activity at 10 µM was more than 401%.
Still for that read-out and setting: the figure for `CCS(=O)(=O)c1ccc2oc(-c3cccc4ccccc34)nc2c1` [Example 427, 5-(ethylsulfonyl)-2-(naphthalen-1-yl)benzo[d]oxazole] is less than 200%.
On the same count and under the same terms, next, `CCCS(=O)(=O)Nc1ccc2oc(-c3ccc(C)cc3)nc2c1` [Example 253, N-(2-p-tolylbenzo[d]oxazol-5-yl)propane-1-sulfonamide]: less than 200%.
On the same count and under the same terms, next, `Nc1ccc2oc(-c3ccc(N4CCOCC4)cc3)nc2c1` [Example 159, 2-(4-morpholinophenyl)benzo[d]oxazol-5-amine]: less than 200%.
For the compound `CC(=O)Nc1ccc2oc(-c3ccc4ccccc4c3)nc2c1` [Example 373, N-(2-(naphthalen-2-yl)benzo[d]oxazol-5-yl)acetamide], the activity at 10 µM was more than 401%.
On the same count and under the same terms, the figure for `CCCC(=O)Nc1cccc2oc(-c3ccc(C)cc3)nc12` [Example 235, N-(2-p-tolylbenzo[d]oxazol-4-yl)butyramide] is less than 200%.

Staying with this assay, now noted: luciferase level relative to control; H2K/mdx/Utro A reporter cells; compound 10 μM final concentration.
Take `CCN(CC)S(=O)(=O)c1ccc2oc(-c3ccc(Cl)cc3)nc2c1` [Example 439, 2-(4′-chlorophenyl)-5-(N,N-diethylsulfonamidyl)-benzoxazole]: the Activity entry is on record as “+ (Up to 200% relative to control)”.

The same assay, now with this note: luciferase reporter assay in murine H2K cells; classified relative to control.
For the compound `O=C(COc1ccc2c(c1)OCO2)Nc1nc2ccccc2s1` [Example 614], the Activity entry is “+ (Up to 200% relative to control)”.
The same measure, in the same setting: next, `Cc1cccc(-c2nc3cc([N+](=O)[O-])ccc3o2)c1` [Example 533]: “++ (Between 201% and 300% relative to control)”; `CCc1nc2cc(S(=O)(=O)CC)ccc2o1` [Example 572]: “+ (Up to 200% relative to control)”; `COc1ccc(-c2nc3cc(C)ccc3o2)cc1` [Example 675]: “++ (Between 201% and 300% relative to control)”.
The same measure, in the same setting: next, `Cc1cc2nc(-c3cc(N)ccc3Cl)oc2cc1C` [Example 646]: “+++ (Between 301% and 400% relative to control)”.
Turning to `CCc1ccc(-c2nc3cc(N)ccc3o2)cc1` [Example 481], the Activity result was “++ (Between 201% and 300% relative to control)”.
For the compound `Cc1ccc2oc(-c3ccc(Cl)c(N)c3)nc2c1` [Example 636], the Activity entry is “+++ (Between 301% and 400% relative to control)”.
On the same count and under the same terms, next, `Cc1nc(Nc2nc3ccccc3o2)nc2c1CCC2` [Example 678]: “++ (Between 201% and 300% relative to control)”.
Take `C(=C\c1nc2ccccc2[nH]1)/c1ccccc1` [Example 547]: the Activity entry is “+++ (Between 301% and 400% relative to control)”.
The same measure, in the same setting: the entry for `CCCc1nc2cc(S(=O)(=O)CC)ccc2o1` [Example 571] is “+ (Up to 200% relative to control)”; for `c1ccc(NNc2nc3ccccc3s2)cc1` [Example 552] it is “+ (Up to 200% relative to control)”.
As to `O=C(Nc1nc2ccc(F)cc2s1)c1cccs1` [Example 658], the Activity result was “+++ (Between 301% and 400% relative to control)”.
In the case of `CC(=O)Nc1cccc(-c2nc3ccccc3[nH]2)c1` [Example 503], the Activity entry was “+ (Up to 200% relative to control)”.
With `COc1ccc(-c2nc3cc(N)ccc3o2)cc1` [Example 512], the Activity entry is listed as “+ (Up to 200% relative to control)”.
Still for that read-out and setting: next, `CC(=O)Nc1ccc(-c2nc3ccccc3o2)cc1` [Example 589]: “+++ (Between 301% and 400% relative to control)”; `Cc1ccc(OCc2nc3ccccc3[nH]2)cc1` [Example 531]: “++ (Between 201% and 300% relative to control)”; `CCC(=O)Nc1ccc(-c2nc3ccccc3s2)cc1` [Example 667]: “++ (Between 201% and 300% relative to control)”.
Consider `Cc1ccc2nc(-c3ccc(C(F)(F)F)cc3)oc2c1` [Example 611], for which the Activity result is “+++ (Between 301% and 400% relative to control)”.
On the same count and under the same terms, the entry for `Nc1ccc(O)c(-c2nc3cc(N)ccc3s2)c1` [Example 550] is “+ (Up to 200% relative to control)”.
Still for that read-out and setting: next, `O=C(Cc1cccs1)Nc1ccc(-c2nc3ccccc3[nH]2)cc1` [Example 493]: “+ (Up to 200% relative to control)”.
